The source of these data is PMC12684298, “The Parkinson's Disease Drug Tolcapone and Analogues are Potent Glycomimetic Lectin Inhibitors of Pseudomonas aeruginosa LecA” (Angewandte Chemie (International Ed. in English), 2025).

Data set [1] concerns the target T1, LecA (Pseudomonas aeruginosa, UniProt Q05097).
T1 construct: made in house; host or cells: E. coli BL21 (DE3), plasmid pET25pa11
The data set can be described thus: biochemical. It counts as binding. The following applies: ITC. On the procedure: Isothermal titration calorimetry was performed on a MicroCal PEAQ-ITC (Malvern Panalytical) at 25 °C and 750 rpm stirring. The cell was filled with LecA (75 - 111 µM) in TBS/Ca buffer (20 mM Tris, 147 mM NaCl, 2.6 mM KCl at pH 7.4 supplemented with 1 mM CaCl2) with 20% DMSO and titrated with ligand (0.75 mM or 1.5 mM, 19 injections) in the same buffer. Data were analysed using the one binding site model in the MicroCal PEAQ-ITC analysis software (Malvern Panalytical). The first injection of each titration was excluded and the baseline subtracted for the final figures. Three titration per compound were performed and the average as well as standard deviation are given.

Data set [2] concerns the target T1, LecA. The data set can be described thus: Ligand-observed 19F NMR binding and competitive displacement with pNPGal. The note with it: for 19F NMR peak intensity [%]: 50 µM ligand. The method, then:
The presence of two fluorine atoms in the high affinity ligand 33 enabled another orthogonal LecA binding experiment (Figure 5c). In analogy to Denavit et al.,^[ [34] ^] ligand‐observed ^19F NMR spectra of 50 µM 33 were recorded in absence and in presence of LecA (100 µM). […] Importantly, the ligand's fluorine signal was restored when pNPGal was added as competitor molecule, indicating the specific and reversible catechol – LecA interaction.
RO0412970 was mixed with trifluoroacetic acid (TFA) as internal standard in non-deuterated TBS/Ca (20 mM Tris, 147 mM NaCl, 2.6 mM KCl at pH 7.4 supplemented with 1 mM CaCl2) and 10% DMSO-d6. From this mixture, one sample with LecA and one without LecA (as control) were prepared. […] Directly after the addition, spectra of both samples were recorded and the data was analysed with MestReNova 14.2.0. The spectra were referenced to TFA (-75.6 ppm) and the peak intensity of RO412970 compared to the internal standard TFA was calculated.

Data set [3] deals with T1, LecA. Nature of the data set: biochemical. It counts as binding. On the procedure: Therefore, we focused our attention on commercially available nitro‐catechols. Prominent derivatives are inhibitors of the enzyme catechol‐O‐methyltransferase (COMT) and approved drugs for the treatment of Parkinson's disease. Four commercial COMT inhibitors were thus evaluated in a previously reported competitive binding assay based on fluorescence polarisation (FP, Table 1, Figure 1).^[ [32] ^]
The competitive binding assay was performed in analogy to Joachim et al.^[2] 10 µL of a solution containing LecA (40 µM) and sulfo-Cy5-Gal (20 nM, synthesis described in Kuhaudomlarp, Siebs et al.^[5]) in TBS/Ca buffer (20 mM Tris, 147 mM NaCl, 2.6 mM KCl at pH 7.4 supplemented with 1 mM CaCl2) were distributed in into wells of a black 384-well microtiter plate (Greiner Bio-One, Germany, cat no 781900). Then, 10 µL of serial dilutions of compounds (3 mM to 1.5 µM, dilution factor 0.5) in TBS/Ca with 40% DMSO were added in technical triplicates. Final concentrations after mixing were the following: 1.5 mM – 0.73 µM compound, 20 µM LecA, 10 nM sulfo-Cy5-Gal and 20% DMSO. The plate was sealed (EASYseal, Greiner Bio-One, cat no 676001), briefly centrifuged and incubated at room temperature in the dark under shaking conditions. Fluorescence intensity was measured after 1 h and 4 h using a PheraStar FS plate reader (BMG Labtech GmbH, Germany) with spectral filters for excitation at 590 nm and emission at 675 nm and polarization was calculated after blank values of 20 µM LecA in TBS/Ca buffer with 20% DMSO were subtracted from the test compounds. The data were analysed using the four-parameter variable slope model of the MARS Data Analysis software. The top and bottom plateau were assigned based on the control compound methyl α-d-galactoside and the data was reanalysed with these fixed values. If not mentioned otherwise, the experiment was repeated at least three times for each compound and the average and standard deviation are given. In case Triton X-100 was used it was added to the TBS/Ca buffer before the assay.

Data set [4] deals with T1, LecA. The note with it: previous hits; cited from earlier work.
In data set [5] the target is T1, LecA. The data set can be described thus: Surface plasmon resonance (SPR) direct binding, steady-state affinity. The method, then:
To confirm the affinity of Tolcapone toward LecA in an orthogonal assay, the compound was then evaluated in a direct binding experiment by surface plasmon resonance (SPR).
Using a BIACORE X100, LecA was immobilised on a CM7 chip by standard amine coupling at 25 °C as described previously.^[5] From a 200 mM solution of Tolcapone in 100% DMSO, a 10 mM solution in PBS (supplemented with 0.05% Tween20 and 100 µM CaCl2) was prepared. The final dilutions (0 – 2000 µM) were then prepared by dilution with running buffer (PBS supplemented with 0.05% Tween 20, 100 µM CaCl2 and 5% DMSO). Increasing concentrations of Tolcapone were injected onto the immobilised LecA in steady-state affinity studies (30 s association, 60 s dissociation, flow rate 30 µL/min). Data was corrected by subtraction of the reference channel (no immobilised LecA) and analysed with the BIACORE X100 evaluation software (version 2.0). The average binding affinity and standard deviation of three independent experiments is given.
For orientation: Surface plasmon resonance follows binding to a sensor surface in real time, without labels.

In data set [6] the target is T1, LecA. Nature of the data set: Library screening using the FP competitive binding assay (three concentrations). The following applies: read-out: Activity [%] (% inhibition relative to 500 µM pNPGal). The text has this: Next, we screened a library of catechols from F. Hoffmann‐La Roche, the developer of Tolcapone, in the competitive binding assay to establish a structure–activity relationship. To this end, two sets of compounds with a molecular cut‐off of 500 Da were chosen: a first set of 342 compounds contained derivatives of Tolcapone, while a second set of 3222 compounds comprised catechols covering a larger chemical space. […] Tests were run in a 384‐well‐plate format at three concentrations (first set at 125, 32, and 4 µM, second set at 100, 25, and 3 µM) in presence of 10% DMSO and 250 µM 2‐mercaptoethanol to prevent interference by a potential unspecific reactivity of electron‐rich catechols as established earlier.^[ [30] ^]
The screening followed the same assay by Joachim et al.^[2] as described above. Compounds in DMSO (1 µL with the appropriate concentration) were plated using a robot into black 384-well microtiter plates (Greiner Bio-One, Germany, cat no 781900) by the Roche compound handling facility at four replicates per concentration and compound. A mixture of LecA, sulfo-Cy5-Gal and 2-mercaptoethanol in TBS/Ca (20 mM Tris, 147 mM NaCl, 2.6 mM KCl at pH 7.4 supplemented with 1 mM CaCl2) with DMSO was added at HIPS. Final concentrations in both screening rounds were the following: 5 µM LecA, 250 µM 2-mercaptoethanol, 10 nM sulfo-Cy5-Gal and 10% DMSO. Final concentrations of the 342 compounds of the first screening round were 125 µM, 32 µM and 4 µM. The 3222 compounds of the second screening round were tested at final concentrations of 100 µM, 25 µM and 3 µM. The plate was sealed (EASYseal, Greiner Bio-One, cat no 676001), briefly centrifuged and incubated at room temperature in the dark under shaking conditions. Fluorescence intensities were measured after 1 h and 24 h using a PheraStar FS plate reader (BMG Labtech GmbH, Germany) with spectral filters for excitation at 590 nm and emission at 675 nm and polarization was calculated after blank values of 5 µM LecA in TBS/Ca buffer with 250 µM 2-mercaptoethanol and 10% DMSO were subtracted from the test compounds. The data were analysed using the MARS Data Analysis software. […] All stated values are the average including the standard deviation based on three replicates for 100 µM and four replicates in the case of compounds at 125 µM.

The conditions of data set [7]: one of the hydroxy groups; no reference given; cited from earlier work.
Setting [8] is: individual replicate (Repl. 1-3).

Structures are written as SMILES. Several values for one entry are separate records, joined by “and”; a condition that tells them apart may be missing. Equal entries are not always repeated. Where two headings read alike, the source gives them in different places.

T1 sequence (Q05097 whole entry): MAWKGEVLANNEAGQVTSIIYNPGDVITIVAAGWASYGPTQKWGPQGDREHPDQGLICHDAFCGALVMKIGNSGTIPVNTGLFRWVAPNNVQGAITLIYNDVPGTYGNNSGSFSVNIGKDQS

As usually defined, the Kd is the constant that tells how readily two partners part at equilibrium. A word on the IC50: it is the midpoint of a concentration-inhibition curve. Turning to `O=C(c1cc(O)c(O)c([N+](=O)[O-])c1)c1c(F)cccc1F` [compound 33], the “N (sites)” value is 0.82 ± 0.03 and 0.820 at LecA [1] (average of three titrations); 0.846 and 0.788 and 0.827 on LecA [1] (setting [8]). The ΔG on LecA [1] (average of three titrations) was -27.6 ± 0.4 kJ/mol and -27.6 kJ/mol; on LecA [1] (setting [8]) it was -27.9 kJ/mol and -27.7 kJ/mol and -27.2 kJ/mol. Further, the ΔH was -24.4 ± 2.2 kJ/mol and -24.4 kJ/mol on LecA [1] (average of three titrations); -22.2 kJ/mol and -24.4 kJ/mol and -26.5 kJ/mol at LecA [1] (setting [8]). In addition, at LecA [1] (setting [8]), the “-TΔS” value is -5.7 kJ/mol and -3.3 kJ/mol and -0.7 kJ/mol. In addition, the Kd at LecA [1] (25 °C, 20% DMSO, average of three titrations) was 15 µM; at LecA [1] (setting [8]), 13.2 µM and 14.4 µM and 17.3 µM. Besides, the “19F NMR peak intensity [%]” value on LecA [2] (100 µM LecA, after pNPGal (1 mM)) is recorded as 79%; at LecA [2] (100 µM LecA, before pNPGal), 1%; at LecA [2] (no LecA, after pNPGal (1 mM), defined as 100%), 100%; at LecA [2] (no LecA, before pNPGal, relative to TFA standard), 106%. Moreover, the “19F NMR intensity ratio catechol/TFA” value on LecA [2] (LecA, after pNPGal) was determined as 0.2160; on LecA [2] (LecA, before pNPGal), 0.0036; on LecA [2] (no LecA, after pNPGal), 0.2752; at LecA [2] (no LecA, before pNPGal) it was 0.2923. For the same molecule, the IC50 against LecA [3] (IC50, extended dose-response analysis, 20% DMSO, no 2-mercaptoethanol, three experiments) was 94 µM; at LecA [3] (IC50 in presence of 0.01% Triton X-100, FP assay, 0.01% Triton X-100, one replicate), 81 µM; on LecA [3] (IC50 in presence of 0.057% Triton X-100, FP assay, 0.057% Triton X-100, one replicate), 91 µM.

`O=C(c1ccccc1)c1ccc(O)c(O)c1` [3,4‐dihydroxybenzophenone]: the Kd on LecA [4] was 3.46 ± 0.41 mM.

One may read the inhibition as the percentage by which the read-out fell short of the control. For orientation: pKa means the negative logarithm of the acid dissociation constant. The molecule `Cc1ccc(C(=O)c2cc(O)c(O)c([N+](=O)[O-])c2)cc1` [compound 4, Tolcapone] returned a Kd at LecA [5] of 181 ± 6 µM. Also, the IC50 at LecA [3] (IC50, LecA inhibition, competitive binding assay (FP), tested up to 1.5 mM, n ≥ 2) is 257 ± 40 µM. In addition, the inhibition at 100 µM at LecA [6] was found to be 43.9 ± 2.1%. Moreover, the pKa in data set [7] is reported as around 4.6.
